Measurements: patent US7420051B2, “Synthetic process for the manufacture of an ecteinaschidin compound” (Pharma Mar, S.A., priority 2000, dated 2008)

Assays:
Format in all cases: cell-based
[1] = tested on: P-388 (suspension culture of a lymphoid neoplasm from DBA/2 mouse); assay: Cytotoxic activity screening, P-388 cells; conditions: Mus musculus, P388, 72 h, three days of incubation, approximate IC50
Description: (§1) Cell Cultures. Cells were maintained in logarithmic phase of growth in Eagle's Minimum Essential Medium, with Earle's Balanced Salts, with 2.0 mM L-glutamine, with non-essential amino acids, without sodium bicarbonate (EMEM/neaa); supplemented with 10% Fetal Calf Serum (FCS), 10^−2 M sodium bicarbonate and 0.1 g/l penicillin-G+streptomycin sulfate.
(§2) A simple screening procedure has been carried out to determine and compare the antitumour activity of these compounds, using an adapted form of the method described by Bergeron et al (1984). The tumour cell line employed have been P-388 (suspension culture of a lymphoid neoplasm from DBA/2 mouse), A-549 (monolayer culture of a human lung carcinoma), HT-29 (monolayer culture of a human colon carcinoma) and MEL-28 (monolayer culture of a human melanoma).
P-388 cell were seeded into 16 mm wells at 1×10^4 cells per well in 1 ml aliquots of MEM 5FCS containing the indicated concentration of drug. A separate set of cultures without drug was seeded as control growth to ensure that cells remained in exponential phase of growth. All determinations were carried out in duplicate.

[2] = tested on: A-549 (monolayer culture of a human lung carcinoma); assay: Cytotoxic activity screening, A-549 cells; conditions: Homo sapiens, A549, 72 h, three days of incubation, Crystal Violet, approximate IC50
Description: as §1, §2
(§3) A-549, HT-29 and MEL-28 were seeded into 16 mm wells at 2×10^4 cells per well in 1 ml aliquots of MEM 10FCS containing the indicated concentration of drug. A separate set of cultures without drug was seeded as control growth to ensure that cells remained in exponential phase of growth. All determinations were carried out in duplicate. After three days of incubation at 37° C., 10% CO2 in a 98% humid atmosphere, the wells were stained with 0.1% Crystal Violet. An approximately IC50 was determined by comparing the growth in wells with drug to the growth in wells control.

[3] = tested on: HT-29 (monolayer culture of a human colon carcinoma); assay: Cytotoxic activity screening, HT-29 cells; conditions: Homo sapiens, HT-29, 72 h, three days of incubation, Crystal Violet, approximate IC50
Description: as §1, §2, §3

[4] = tested on: MEL-28 (monolayer culture of a human melanoma); assay: Cytotoxic activity screening, MEL-28 cells; conditions: SK-MEL-28, 72 h, three days of incubation, Crystal Violet, approximate IC50
Description: as §1, §2, §3

DU-145 = assay: Cytotoxic activity screening, DU-145 cells; conditions: Homo sapiens, DU-145, DU-145 cells
CV-1 = assay: Cytotoxic activity screening, CV-1 cells; conditions: Cercopithecidae

Measured: IC50

COc1c(C)cc2c(c1O)[C@@H]1C3Cc4c(OC(C)=O)c(C)c5c(c4[C@H](CNC(=O)[C@H](C)NC(=O)CCCl)N3[C@@H](C#N)[C@H](C2)N1C)OCO5 (some centres unmarked)
not listed: CV-1
0.001 µM: all other assays above

C/C=C(\OC(C)=O)C1=C(C2=COCO2)[C@H](CNC(=O)CCCC)N2C(C1)[C@H]1c3c(cc(C)c(OC)c3O)C[C@@H]([C@@H]2C#N)N1C (some centres unmarked)
not listed: CV-1
0.007 µM: all other assays above

COc1c(C)cc2c(c1O)[C@@H]1C3Cc4c(OC(C)=O)c(C)c5c(c4[C@H](CNC(=O)[C@H](C)NC(=S)Nc4ccccc4)N3[C@@H](C#N)[C@H](C2)N1C)OCO5 (some centres unmarked)
not listed: CV-1
0.001 µM: all other assays above

COc1c(C)cc2c(c1O)[C@@H]1C3Cc4c(OC(C)=O)c(C)c5c(c4[C@H](CNC(=O)[C@H](C)NC(=O)/C=C/c4ccccc4)N3[C@@H](C#N)[C@H](C2)N1C)OCO5 (some centres unmarked)
0.001 µM: [1] | [2] | [4]
0.0005 µM: [3] | DU-145

COc1c(C)cc2c(c1O)[C@@H]1C3Cc4c(OC(C)=O)c(C)c5c(c4[C@H](CNC(=O)[C@@H](C)NC(=O)/C=C/c4cccc(C(F)(F)F)c4)N3[C@@H](C#N)[C@H](C2)N1C)OCO5 (some centres unmarked)
not listed: CV-1
0.001 µM: all other assays above

C=CCOc1c(C)c2c(c3c1CC1[C@H]4c5c(cc(C)c(OC)c5OCOC)C[C@@H]([C@H](C#N)N1[C@H]3CNC(=O)OCC(Cl)(Cl)Cl)N4C)OCO2 (some centres unmarked)
0.13 µM: CV-1 | DU-145

C/C=C(\OC(C)=O)C1=C(C2=COCO2)[C@H](CNC(=O)/C=C/c2ccccc2)N2C(C1)[C@H]1c3c(cc(C)c(OC)c3O)C[C@@H]([C@@H]2C#N)N1C (some centres unmarked)
not listed: CV-1
0.0001 µM: all other assays above

CCCC(=O)N[C@H](C)C(=O)NC[C@H]1c2c(c(OC(C)=O)c(C)c3c2OCO3)CC2[C@H]3c4c(cc(C)c(OC)c4O)C[C@@H]([C@H](C#N)N21)N3C (some centres unmarked)
0.001 µM: [1] | [2] | DU-145
0.0005 µM: [3] | [4]

COc1c(C)cc2c(c1O)[C@@H]1C3Cc4c(OC(C)=O)c(C)c5c(c4[C@H](CNC(=O)[C@@H](C)NC(=O)CC(C)C)N3[C@@H](C#N)[C@H](C2)N1C)OCO5 (some centres unmarked)
not listed: CV-1
0.0001 µM: all other assays above

COc1c(C)cc2c(c1O)[C@@H]1C3Cc4c(O)c(C)c5c(c4[C@H](CNC(=O)[C@H](C)NC(=O)C(F)(F)F)N3[C@@H](C#N)[C@H](C2)N1C)OCO5 (some centres unmarked)
not listed: CV-1
0.01 µM: all other assays above

COCOc1c(OC)c(C)cc2c1[C@@H]1C3Cc4c(OC(C)=O)c(C)c5c(c4[C@H](CNC(=O)[C@H](C)NC(=O)OC(C)(C)C)N3[C@@H](C#N)[C@H](C2)N1C)OCO5 (some centres unmarked)
not listed: CV-1
0.13 µM: all other assays above

CCCC(=O)NC[C@H]1c2c(c(OC(C)=O)c(C)c3c2OCO3)CC2[C@H]3c4c(cc(C)c(OC)c4O)C[C@@H]([C@H](C#N)N21)N3C (some centres unmarked)
0.0005 µM: [2] | DU-145
0.0001 µM: [1] | [3] | [4]

COc1c(C)cc2c(c1O)[C@@H]1C3Cc4c(OC(C)=O)c(C)c5c(c4[C@H](CNC(=O)[C@H](C)N)N3[C@@H](C#N)[C@H](C2)N1C)OCO5 (some centres unmarked)
0.008 µM: [1] | [3] | [4]
0.016 µM: [2] | DU-145

COCOc1c(OC)c(C)cc2c1[C@@H]1C3CC4=C(C(=O)C(O)=C(C)C4=O)[C@H](CNC(C)=O)N3[C@@H](C#N)[C@H](C2)N1C (some centres unmarked)
> 9 µM: [1]
not listed: DU-145
> 18.1 µM: all other assays above

COc1c(C)cc2c(c1O)[C@@H]1C3Cc4c(OC(C)=O)c(C)c5c(c4[C@H](CNC(C)=O)N3[C@@H](C#N)[C@H](C2)N1C)OCO5 (some centres unmarked)
not listed: CV-1
0.001 µM: all other assays above

COC1=C(C)C(=O)C2=C(C1=O)[C@H](CNC(=O)C(C)N)N1C(C2)[C@H]2c3c(cc(C)c(OC)c3O)C[C@@H]([C@@H]1C#N)N2C (some centres unmarked)
0.023 µM: CV-1
0.018 µM: [2] | [3] | [4]
0.009 µM: [1]
